Source: patent US10329324B2 (viDA Therapeutics Inc., priority 2013, dated 2019)
Structures can show the parent of a compound that is named as a salt. Where two headings read alike, the source gives them in different places.

Columns and labels:
human Granzyme B (hGzmB) = target: T1, human Granzyme B (hGzmB) (Homo sapiens, UniProt P10144); assay: Human Granzyme B enzymatic inhibition assay (fluorogenic, kinetic); type: biochemical; settings: activity codes, Table 7; read-out: IC50 Activity Range
T1 construct: purchased Froelich Lab, Northshore University Health Systems Research Institute, Evanston, Ill., USA
Method: A specific 2× assay buffer was prepared for the enzyme to be tested (see Table 2 for final 1× assay buffer compositions). If the assay buffer included DTT, it was added immediately prior to running the assay. A 2× enzyme mix was prepared (see Table 3 for enzyme assay conditions) at 80 uL per well. Compounds were screened at one or two appropriate concentrations (to determine the percent inhibition at those concentrations) and/or a full dose response curve (typically 8 points, to identify the IC50) in duplicate, triplicate, or higher replicates as needed. An appropriate control was also assessed in full dose response, in duplicate for each assay/plate. Background control wells consisted of 1× assay buffer, DMSO (5% v/v) and substrate. Positive control wells consisted of enzyme, DMSO (5% v/v) and substrate. Test compounds and control compounds were diluted in DMSO to […] the final desired concentration. For example, a test compound may be tested in dose response, in serial, tripling dilution condition starting at 20 uM and ending at 9.1 nM (or any appropriate concentration range and dilution scheme). Control compounds were prepared similarly. Diluted compounds were prepared in a dilution plate and transferred to the reaction plate (96-well medium binding plate (Greiner Bio-One FLUOTRAC™)) to allow for the desired final concentrations when added to the enzyme with AB. After mixing, the reaction plate was placed on a shaker (at 300 RPM) for 5 min, followed by incubation (covered) on the bench, for 20 min. Plates were warmed to reaction temperature (see Table 3) for a total incubation time of 30 min. Plates so prepared were ready for addition of substrate and the subsequent reaction.
(§1) An appropriate substrate for each assay was prepared in advance at 2× the final desired concentration (see Table 2) in DMSO. The appropriate substrate mix was added to each appropriate well on the reaction plate, and the plate was read immediately in the TECAN plate reader (TECAN INFINITE® M1000 Pro), set to the correct wavelength as needed for each assay (see Table 3) using 25 cycles, kinetic interval of 1 min, number of reads per well of 20 with shaking set to 1 s, double orbital, 2 mm amplitude. For fluorescent assays the gain was set to optimal (50%).
An in vitro fluorogenic detection assay for assessing the IC50 and/or percent inhibition at a given concentration of inhibitors against human Granzyme B (hGzmB) enzyme was performed as described in Example D1. When appropriate, percent inhibition data was collected and fitted to generate IC50 data using GraphPad Prism 5 (GraphPad Software, La Jolla Calif. USA, www.graphpad.com) and its non-linear regression analysis tools or other equivalent tools. […]
as §1, with “5)” for “2)”, “assay buffer. 30 uL of the” for “DMSO. The”, “6)” for “3)”, “15” for “25”, “(100% with gain regulation) for all assays except human GzmB which was set to 85 (with the z set at 23000 um).” for “(50%).”
An in vitro fluorogenic detection assay for assessing the IC50 and/or percent inhibition at a given concentration of inhibitors against human Granzyme B (hGzmB) enzyme was performed as described in Example D5. When appropriate, percent inhibition data was collected and fitted to generate IC50 data using GraphPad Prism 5 (GraphPad Software, La Jolla Calif. USA, www.graphpad.com) and its non-linear regression analysis tools or other equivalent tools.

[1] = Kinetic solubility determination in PBS; type: physicochemical; settings: PBS 1X pH 7.4, 2.0% DMSO, 24 hour incubation at ambient temperature; for solubility at 24 h: phosphate buffered saline (PBS 1×), 21 °C, pH 7.4, aqueous buffer, kinetic from dmso stock
Method: Kinetic solubility buffer (phosphate buffered saline (PBS, 1×) at pH 7.4) was prepared from PBS (10×) solution, (Fisher Scientific, Pittsburgh, Pa., USA, 10×), by adding PBS (50 mL, 10×) to approximately water (450 mL HPLC grade). The volume of the solution was then adjusted to 500 mL for a total dilution factor of 1:10 and a final PBS concentration of 1×. The pH of the final solution (PBS (1×)) was measured and found to be 7.4.
A DMSO stock solution (typically 10 mM or greater) was used for each compound to be tested. A final DMSO concentration of 2.0% and maximum theoretical compound concentration of typically 200 μM (or greater) was achieved by diluting an aliquot (6 μl) of each stock with kinetic solubility buffer (294 μl, PBS (1×) at pH 7.4) using a liquid handling system (Hamilton STARlet, Hamilton Robotics, Inc., Reno, Nev., USA) and incubated directly in a solubility filter plate (Millipore, Billerica, Mass., USA). Following 24 hour incubation at ambient temperature (20.5-21.7° C.), each sample was vacuum filtered. The filtrate was injected into the chemiluminescent nitrogen detector for quantification (Automated Discovery Workstation, Analiza, Inc., Cleveland, Ohio, USA). Each result was reported both in μM and μg/mL units. Three separate on-board performance indicating standards were assayed in triplicate with each test compound to ensure test results were within the acceptable range.
The equimolar nitrogen response of the detector was calibrated using standards which spanned the dynamic range of the instrument from 0.08 to 4500 μg/ml nitrogen. Each filtrate was quantified with respect to this calibration curve. Each calculated solubility value was corrected for background nitrogen present in the DMSO, and buffer used to prepare each sample. All reported values for samples containing adjacent nitrogen atoms in a ring structure were corrected for the expected non-equimolar response. Each calculated solubility result assumed that each sample was free of nitrogen containing impurities and was stable under the assay conditions. Analyses were performed at Analiza Inc. (Cleveland, Ohio, USA) by published methods (Bhattachar, S. N., et al, J. Pharma. BioMed Anal. 41:152-7 2006).

T1 sequence (P10144 21-247): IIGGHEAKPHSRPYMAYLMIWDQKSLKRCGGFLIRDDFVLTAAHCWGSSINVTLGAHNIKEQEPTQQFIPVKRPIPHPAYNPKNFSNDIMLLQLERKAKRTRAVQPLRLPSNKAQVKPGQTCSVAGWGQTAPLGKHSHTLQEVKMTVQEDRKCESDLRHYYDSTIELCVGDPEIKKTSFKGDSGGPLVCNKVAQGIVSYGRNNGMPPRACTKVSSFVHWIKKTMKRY

SMILES | IC50 (human Granzyme B (hGzmB)) [nM] | also measured
CC(C)(F)C(NC(=O)Cc1ccccc1)C(=O)NCC(=O)N1c2ccccc2C[C@H]1C(=O)NCc1nn[nH]n1 (mixture of isomers) [Example A41, (2S)-1-{2-[3-Fluoro-3-Methyl-2-(2-Phenylacetamido)Butanamido]Acetyl}-N-(2H-1,2,3,4-Tetrazol-5-Ylmethyl)-2,3-Dihydro-1H-Indole-2-Carboxamide] | > 10000 | 
CC[C@H](C)[C@H](NC(=O)Cc1ccccc1)C(=O)NCC(=O)N1c2ccccc2CCC1C(=O)NCc1c[nH]nn1 (mixture of isomers) [Example B5, (2S)-1-{2-[(2S,3S)-3-Methyl-2-(2-Phenylacetamido)Pentanamido]Acetyl}-N-(1H-1,2,3-Triazol-4-Ylmethyl)-1,2,3,4-Tetrahydroquinoline-2-Carboxamide] | 1000 to 10000 | 
CC[C@H](C)[C@H](NC(=O)Cc1ccccc1)C(=O)NCC(=O)N1c2ccc(C)cc2CC1C(=O)NCc1c[nH]nn1 (mixture of isomers) [Example B7, 5-Methyl-1-{2-[(2S,3S)-3-Methyl-2-(2-Phenylacetamido)Pentanamido]Acetyl}-N-(1H-1,2,3-Triazol-4-Ylmethyl)-2,3-Dihydro-1H-Indole-2-Carboxamide] | 100 to 1000 | 
CC[C@H](C)[C@H](NC(=O)C1CCCC1C(=O)O)C(=O)NCC(=O)N1c2ccccc2C[C@H]1C(=O)NCc1nn[nH]n1 (single isomer, unassigned) [Example A57-1] | < 100 | 
CC[C@H](C)[C@H](NC(=O)C1CCCC1C(=O)O)C(=O)NCC(=O)N1c2ccccc2C[C@H]1C(=O)NCc1nn[nH]n1 (single isomer, unassigned) [Example A57-2] | < 100 | 
CC[C@H](C)[C@H](NC(=O)CCCCC(=O)O)C(=O)NCC(=O)N1c2ccccc2C[C@H]1C(=O)NCc1nn[nH]n1 [Example A5, 5-{[(1S,2S)-2-Methyl-1-({2-Oxo-2-[(2S)-2-[(2H-1,2,3,4-Tetrazol-5-Ylmethyl)Carbamoyl]-2,3-Dihydro-1H-Indol-1-Yl]Ethyl}Carbamoyl)Butyl]Carbamoyl}Pentanoic Acid] | < 100 | 
CC[C@H](C)[C@H](NC(=O)Cc1cccc(N)c1)C(=O)NCC(=O)N1c2ccccc2C[C@H]1C(=O)NCc1nn[nH]n1 [Example A9, (2S)-1-{2-[(2S,3S)-2-[2-(3-Aminophenyl)Acetamido]-3-Methylpentanamido]Acetyl}-N-(2H-1,2,3,4-Tetrazol-5-Ylmethyl)-2,3-Dihydro-1H-Indole-2-Carboxamide Hydrochloride] | 100 to 1000 | 
O=C(Cc1ccccc1)N[C@H](C(=O)NCC(=O)N1c2ccccc2C[C@H]1C(=O)NCc1nn[nH]n1)C1CCCCC1 [Example A11, (2S)-1-{2-[(2S)-2-Cyclohexyl-2-(2-Phenylacetamido)Acetamido]Acetyl}-N-(2H-1,2,3,4-Tetrazol-5-Ylmethyl)-2,3-Dihydro-1H-Indole-2-Carboxamide] | 1000 to 10000 | 
CC[C@H](C)[C@H](NC(=O)CC(C)CC(=O)O)C(=O)NCC(=O)N1c2ccccc2C[C@H]1C(=O)NCc1nn[nH]n1 (stereo partly drawn) [Example A17, 3-Methyl-4-{[(1S,2S)-2-Methyl-1-({2-Oxo-2-[(2S)-2-[(2H-1,2,3,4-Tetrazol-5-Ylmethyl)Carbamoyl]-2,3-Dihydro-1H-Indol-1-Yl]Ethyl}Carbamoyl)Butyl]Carbamoyl}Butanoic Acid] | < 100 | 
CC[C@H](C)[C@H](NC(=O)Cc1ccccc1)C(=O)NCC(=O)N1c2ccccc2C[C@H]1C(=O)NCc1csnn1 [Example B2, (2S)-1-{2-[(2S,3S)-3-Methyl-2-(2-Phenylacetamido)Pentanamido]Acetyl}-N-(1,2,3-Thiadiazol-4-Ylmethyl)-2,3-Dihydro-1H-Indole-2-Carboxamide] |  | solubility at 24 h ([1]; read-out: Solubility in aqueous PBS Buffer (1X, pH 7.4)): 12.6 µM; solubility at 24 h ([1]; read-out: Solubility in aqueous PBS Buffer (1X, pH 7.4), ug/mL): 8.4 µg/mL
CC[C@H](C)[C@H](NC(=O)Cc1csc2ccccc12)C(=O)N[C@H]1CCc2cccc3c2N(C1=O)[C@H](C(=O)NCc1c[nH]nn1)C3 [Willoughby 20, reference compound] |  | Solubility in aqueous PBS Buffer (1X, pH 7.4), uM [1]: 4.2-4.9 uM; Solubility in aqueous PBS Buffer (1X, pH 7.4), ug/mL [1]: 2.6-3.0 ug/mL
